Assay results: PubChem BioAssay (NCI)
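Tested at 5 concentrations; 48 h exposure; 96-well plates; endpoints linearly interpolated, else capped at highest concentration. GI50: concentration for 50% inhibition of growth. Definition used: TGI = concentration required for complete inhibition of growth.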

Columns and labels:
Experiment in all cases: growth of human tumour cells (NCI), 48 h
[1] = test system: SNB-75 CNS
[2] = test system: HT29 colon
[3] = test system: SK-MEL-5 melanoma
[4] = test system: SF-268 CNS
[5] = test system: HCT-116 colon
[6] = test system: IGROV1 ovarian
[7] = test system: HL-60(TB) leukemia
[8] = test system: SNB-19 CNS
[9] = test system: OVCAR-4 ovarian
[10] = test system: COLO 205 colon

Compound | TGI [1] [µM] | TGI [2] [µM] | TGI [3] [µM] | TGI [4] [µM] | TGI [5] [µM] | TGI [6] [µM] | TGI [7] [µM] | TGI [8] [µM] | TGI [9] [µM] | TGI [10] [µM] | GI50 [1] [µM] | GI50 [2] [µM] | GI50 [3] [µM] | GI50 [4] [µM] | GI50 [5] [µM] | GI50 [6] [µM] | GI50 [7] [µM] | GI50 [8] [µM] | GI50 [9] [µM] | GI50 [10] [µM]
CCCCC1CC(c2cccc([N+](=O)[O-])c2)=NO1 (stereo not drawn) | > 100 | > 100 | > 100 | > 100 | > 100 | > 100 | > 100 | > 100 | > 100 | > 100 | – | – | – | – | – | – | – | – | – | –
CN(C)c1ccc([O-])cc1.CN(C)c1ccc([O-])cc1.CN(C)c1ccc([O-])cc1.CN(C)c1ccc([O-])cc1.[Ti+4] | > 100 | > 100 | > 100 | > 100 | > 100 | > 100 | > 100 | > 100 | > 100 | > 100 | 27.2 | > 100 | 51.5 | > 100 | > 100 | > 100 | 27.5 | > 100 | 75.3 | 85.3
CCOC(=O)C1=C(c2ccccc2)N(C)c2ccccc2S1 | > 100 | 46.1 | 30.3 | 97.3 | 73.3 | > 100 | > 100 | > 100 | > 100 | > 100 | – | – | – | – | – | – | – | – | – | –
Cc1ccc(/C(=N\N=C(N)N)c2ccccc2)cc1 | 4.94 | 5.73 | 1.73 | 17.3 | 11.3 | 31.4 | > 36.2 | 13.1 | 18.6 | 0.714 | 0.288 | 0.344 | 0.353 | 0.868 | 0.342 | 0.459 | 0.318 | 0.455 | 0.791 | 0.282
O=C(Nc1cccc([N+](=O)[O-])c1)C(=O)C(C(=O)c1ccccc1-c1ccccc1)C1OC(=O)c2ccccc21 (stereo not drawn) | 64.8 | > 100 | 30.7 | 75.8 | 26.6 | 98.8 | 56.5 | – | – | 38.1 | – | – | – | – | – | – | – | – | – | –
COc1ccc(NC(=O)C(=O)Cc2nc3ccc([N+](=O)[O-])cc3[nH]c2=O)c(OC)c1 | > 100 | > 100 | > 100 | – | > 100 | > 100 | > 100 | > 100 | > 100 | > 100 | – | – | – | – | – | – | – | – | – | –
CCCCCCCCCCCCCCN | > 100 | > 100 | > 100 | > 100 | > 100 | > 100 | > 100 | – | > 100 | > 100 | – | – | – | – | – | – | – | – | – | –
CCc1cccc(C(C)C)c1NC(=O)C(=O)CC(=O)c1c(C)n([O-])c2ccccc2[n+]1=O | > 100 | – | > 100 | > 100 | > 100 | > 100 | > 100 | > 100 | > 100 | > 100 | – | – | – | – | – | – | – | – | – | –
OCCCOC(c1ccccc1)(c1ccccc1)c1ccccc1 | 62 | 92.8 | > 100 | > 100 | > 100 | > 100 | > 100 | – | > 100 | > 100 | – | – | – | – | – | – | – | – | – | –
O=C(c1ccccc1)C1CCCCN1C(=O)c1ccccc1 (stereo not drawn) | > 100 | – | > 100 | > 100 | > 100 | > 100 | > 100 | > 100 | > 100 | > 100 | – | – | – | – | – | – | – | – | – | –
